What was measured:
[1] = system: cch-evoked bronchoconstriction; assay: Experimental bronchospasm (carbachol-induced bronchoconstriction, Konzett & Roessler); format: in vivo, Male CD Sprague Dawley rats; settings: iv, rat, 1 hour after administration, carbachol 80 μg/kg i.v., read-out: Inhibition % (±s.e. mean) of cch-evoked bronchoconstriction; for inhibition in vivo at 0.01 mg/kg: dose 10 μg/Kg intratracheal; for inhibition in vivo at 0.003 mg/kg: dose 3 μg/Kg intratracheal
Procedure: Male CD Sprague Dawley rats (220-250 g) were purchased from Charles River Laboratories Italy (Calco, Lecco). Prior to use animals were acclimated for at least 5 days 20 to the local vivarium conditions (room temperature: 20-24° C.; relative humidity: 40-70%), having free access to standard rat chow and softened tap water. All the procedures were performed in animal operating rooms according to ethical guidelines for the conduct of animal research (D. L.vo 116/92).
Rats were anaesthetized with a combination of anesthetics (Zoletil 20 mg/kg+Xylazine 5 mg/kg, ip) for the i.t. administration. A laryngoscope was moved forward into the mouth to visualize the trachea and guide the insertion of the tip of a custom-made small diameter cannula directly into the trachea and located 1-2 mm above the bifurcation.
In order to assess the residual inhibitory activity of test compounds 1 hour after their administration, rats were surgically prepared. Body temperature was kept constant at 37° C. by a heated blanket.
The trachea was cannulated and the lungs were ventilated artificially with a constant volume ventilator (rodent ventilator mod. 7025, Ugo Basile, Comerio, Varese, Italy) at a frequency of 80 strokes/min and at a tidal volume of 10 ml/kg. To avoid spontaneous breathing, the animals were injected intravenously (i.v.) with pancuronium bromide (2 mg/kg).
Bronchoconstriction was induced by the i.v. injection of carbachol (cch) 80 μg/kg. In control experiments, repeated injections of this dose produced reproducible short-lasting (1-2 min duration) bronchospasms. Bronchoconstriction, quantified as a reduction of tidal volume, was evaluated according to the method described by Konzett & Roessler (1). Systemic blood pressure and changes in airway resistance were monitored with a digital pressure transducer.
After stabilisation of artificial breathing and blood pressure, animals were injected (i.v.) with cch every 3 min, until 3 stable and reproducible basal responses were obtained. […] The effect of test compounds was 15 expressed as % inhibition of cch-evoked bronchoconstriction in time-matched, vehicle-treated, animals (controls).
Tested compounds were dissolved in dH2O and 1% Tween-80 or 0,001% HCl and further diluted to target concentrations. Tested compounds were instilled locally into the trachea in a volume of 125 μl.
All data are presented as mean±s.e.mean. The % inhibition of experimental bronchospasm was calculated comparing the drug-treated with the vehicle-treated control animals. Data analysis was performed using GraphPad Prism software.

[2] = target: Rho kinase 2 (ROCK2) (Homo sapiens, UniProt O75116); assay: In vitro inhibitory activity assay ROCK2 (ADP-Glo); format: biochemical; settings: ATP 200 μM, Cheng-Prusoff from IC50; read-out: ROCK2 (Ki, range of activity)
Procedure: (§1) The effectiveness of compounds of the present invention to inhibit Rho kinase activity can be determined in a 10 μl assay containing 40 mM Tris pH7.5, 20 mM MgCl2 0.1 mg/mL BSA, 50 μM DTT and 2.5 μM peptide substrate (Myelin Basic Protein) using an ADP-Glo kit (Promega). Compounds were dissolved in DMSO such that the final concentration of DMSO was 1% in the assay. All reactions/incubations are performed at 25° C. Compound (2 ul) and either Rho kinase 1 or 2 (4 μl) were mixed and incubated for 30 mins. Reactions were initiated by addition of ATP (4μ1) such that the final concentration of ATP in the assay was 200 μM. After a 1 hour incubation 10 μl of ADP-Glo Reagent was added and after a further 1 hour incubation 20 ul of Kinase Detection Buffer was added and the mixture incubated for a further 45 minutes. The luminescent signal was measured on a luminometer. […] Compounds were tested in dose-response format and the inhibition of kinase activity was calculated at each concentration of compound. To determine the IC50 (concentration of compound required to inhibit 50% of the enzyme activity) data were fit to a plot of % inhibition vs Log10 compound concentration using a sigmoidal fit with a variable slope and fixing the maximum to 100% and the minimum to 0%. To determine the Ki values the Cheng-Prusoff equation was utilized (Ki=IC50/(1+[S]/Km).

[3] = target: Rho kinase 1 (ROCK1) (Homo sapiens, UniProt Q13464); assay: In vitro inhibitory activity assay ROCK1 (ADP-Glo); format: biochemical; settings: ATP 200 μM, Cheng-Prusoff from IC50; read-out: ROCK 1 (Ki, range of activity)
Procedure: as §1

[4] = target: PKA (Homo sapiens, UniProt P17612); assay: In vitro inhibitory activity assay for PKA (ADP-Glo), reported as selectivity ratio vs ROCK2; format: biochemical; settings: Ki value for PKA divided by Ki value of ROCK2
Procedure: The effectiveness of compounds of the present invention to inhibit PKA activity can be determined in a 10 μl assay containing 40 mM Tris pH7.5, 20 mM MgCl2 0.1 mg/ml BSA, 50 μM DTT and 260 μM peptide substrate (kemptide) using an ADP-Glo kit (Promega). Compounds were dissolved in DMSO such that the final concentration of DMSO was 1% in the assay. All reactions/incubations are performed at 25° C. Compound and PKA enzyme (6 μl) were mixed and incubated for 30 mins. Reactions were initiated by addition of ATP (4 μl ) such that the final concentration of ATP in the assay was 10 μM. After a 30 minute incubation 10 μl of ADP-Glo Reagent was added and after a further 1 hour incubation 20 μl of Kinase Detection Buffer was added and the mixture incubated for a further 45 minutes. The luminescent signal was measured on a luminometer. […] Compounds were tested in dose-response format and the inhibition of kinase activity was calculated at each concentration of compound. To determine the IC50 (concentration of compound required to inhibit 50% of the enzyme activity) data were fit to a plot of % inhibition vs Logio compound concentration using a sigmoidal fit with a variable slope and fixing the maximum to 100% and the minimum to 0%. To determine the Ki values the Cheng-Prusoff equation was utilized (Ki=IC50/(1+[S]/Km).
In vitro inhibitory activities for PKA were reported as selectivity ratio vs. ROCK-2.

Sequence of Rho kinase 2 (ROCK2) (O75116 whole entry): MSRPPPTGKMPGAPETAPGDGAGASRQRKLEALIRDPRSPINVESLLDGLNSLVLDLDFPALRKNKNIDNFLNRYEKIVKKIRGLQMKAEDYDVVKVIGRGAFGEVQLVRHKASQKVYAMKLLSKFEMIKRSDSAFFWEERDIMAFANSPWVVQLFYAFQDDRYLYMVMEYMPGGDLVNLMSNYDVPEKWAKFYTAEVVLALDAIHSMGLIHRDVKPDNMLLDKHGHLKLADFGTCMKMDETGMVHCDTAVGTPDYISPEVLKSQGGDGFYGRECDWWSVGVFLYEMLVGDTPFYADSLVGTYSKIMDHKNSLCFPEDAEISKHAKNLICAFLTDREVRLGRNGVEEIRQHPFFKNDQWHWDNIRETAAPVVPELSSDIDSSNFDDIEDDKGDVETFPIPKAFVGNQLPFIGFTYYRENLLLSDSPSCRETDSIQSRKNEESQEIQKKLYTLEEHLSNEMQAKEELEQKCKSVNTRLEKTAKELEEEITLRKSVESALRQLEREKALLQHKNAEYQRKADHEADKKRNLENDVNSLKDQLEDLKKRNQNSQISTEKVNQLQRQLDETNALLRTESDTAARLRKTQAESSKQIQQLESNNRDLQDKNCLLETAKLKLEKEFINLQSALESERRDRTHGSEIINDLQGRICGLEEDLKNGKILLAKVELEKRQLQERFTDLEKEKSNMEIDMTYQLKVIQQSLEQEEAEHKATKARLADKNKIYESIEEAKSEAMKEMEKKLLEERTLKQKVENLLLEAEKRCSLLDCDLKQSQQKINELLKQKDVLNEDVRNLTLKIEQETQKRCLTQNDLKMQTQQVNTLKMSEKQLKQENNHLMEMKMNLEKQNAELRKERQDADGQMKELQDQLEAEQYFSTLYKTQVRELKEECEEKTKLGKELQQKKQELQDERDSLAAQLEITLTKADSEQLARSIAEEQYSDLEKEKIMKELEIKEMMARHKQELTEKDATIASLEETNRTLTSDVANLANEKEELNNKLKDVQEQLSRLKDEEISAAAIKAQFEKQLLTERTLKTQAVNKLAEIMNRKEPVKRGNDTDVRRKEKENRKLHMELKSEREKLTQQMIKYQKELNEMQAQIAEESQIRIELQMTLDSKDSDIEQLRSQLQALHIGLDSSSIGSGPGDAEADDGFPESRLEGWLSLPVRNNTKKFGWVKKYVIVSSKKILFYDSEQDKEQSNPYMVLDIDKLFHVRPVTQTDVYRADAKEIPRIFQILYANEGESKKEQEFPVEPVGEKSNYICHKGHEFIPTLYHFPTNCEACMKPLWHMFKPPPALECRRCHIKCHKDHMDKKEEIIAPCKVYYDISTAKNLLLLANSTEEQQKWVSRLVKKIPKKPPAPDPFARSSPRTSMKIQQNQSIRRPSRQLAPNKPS
Sequence of Rho kinase 1 (ROCK1) (Q13464 whole entry): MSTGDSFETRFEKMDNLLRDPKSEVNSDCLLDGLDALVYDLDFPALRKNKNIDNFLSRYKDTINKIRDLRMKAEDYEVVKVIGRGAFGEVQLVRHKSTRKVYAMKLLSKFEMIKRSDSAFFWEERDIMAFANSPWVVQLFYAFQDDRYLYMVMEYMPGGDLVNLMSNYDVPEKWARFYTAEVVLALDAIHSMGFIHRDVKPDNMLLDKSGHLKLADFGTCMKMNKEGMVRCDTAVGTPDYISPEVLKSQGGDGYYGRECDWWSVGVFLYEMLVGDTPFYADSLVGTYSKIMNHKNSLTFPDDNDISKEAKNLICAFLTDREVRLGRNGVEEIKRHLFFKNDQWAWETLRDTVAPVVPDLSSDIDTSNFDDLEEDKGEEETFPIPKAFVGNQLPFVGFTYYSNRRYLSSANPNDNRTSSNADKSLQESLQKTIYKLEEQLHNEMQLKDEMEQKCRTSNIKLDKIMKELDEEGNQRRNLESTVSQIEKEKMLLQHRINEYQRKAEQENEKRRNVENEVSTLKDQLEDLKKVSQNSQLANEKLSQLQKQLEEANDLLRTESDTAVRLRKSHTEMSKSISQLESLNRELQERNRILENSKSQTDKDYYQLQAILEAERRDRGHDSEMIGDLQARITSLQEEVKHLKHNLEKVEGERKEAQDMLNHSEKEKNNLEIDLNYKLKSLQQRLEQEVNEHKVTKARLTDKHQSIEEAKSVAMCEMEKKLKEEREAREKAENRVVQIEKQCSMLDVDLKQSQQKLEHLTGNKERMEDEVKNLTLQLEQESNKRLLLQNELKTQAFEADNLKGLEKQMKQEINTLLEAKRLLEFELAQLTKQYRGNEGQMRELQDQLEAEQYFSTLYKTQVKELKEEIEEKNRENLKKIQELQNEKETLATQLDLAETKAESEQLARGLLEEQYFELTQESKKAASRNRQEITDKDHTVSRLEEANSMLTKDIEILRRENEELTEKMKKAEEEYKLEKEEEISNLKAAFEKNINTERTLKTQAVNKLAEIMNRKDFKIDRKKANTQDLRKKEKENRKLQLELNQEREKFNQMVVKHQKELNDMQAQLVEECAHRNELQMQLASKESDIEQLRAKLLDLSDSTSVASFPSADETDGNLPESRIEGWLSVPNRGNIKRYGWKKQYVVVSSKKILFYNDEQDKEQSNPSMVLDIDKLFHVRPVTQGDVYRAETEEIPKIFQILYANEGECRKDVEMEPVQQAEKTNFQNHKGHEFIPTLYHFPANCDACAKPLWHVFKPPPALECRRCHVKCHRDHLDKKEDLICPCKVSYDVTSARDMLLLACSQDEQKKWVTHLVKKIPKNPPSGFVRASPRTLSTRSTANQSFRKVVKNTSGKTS

Ki [2] [nM]	Ki [3] [nM]	Ratio (PKA/ROCK2) [4]	SMILES	inhibition in vivo at 0.01 mg/kg [1] [%]	inhibition in vivo at 0.003 mg/kg [1] [%]
≤ 3	≤ 3	*** (ratio≥10)	Nc1nccc(-c2cnc(NCc3cccc(C(=O)Nc4ccc(N5CCNCC5)cn4)c3)c3c2OCC3)n1 [Example 53, 3-(((7-(2-aminopyrimidin-4-yl)-2,3-dihydrofuro[3,2-c]pyridin-4-yl)amino)methyl)-N-(5-(piperazin-1-yl)pyridin-2-yl)benzamide]	70.7 ± 3.4	–
≤ 3	≤ 3	*** (ratio≥10)	CN(C)CCC(=O)N1CCN(c2ccc(NC(=O)c3cccc(CNc4ncc(-c5ccnc(N)n5)c5c4CCO5)c3)nc2)CC1 [Example 66, 3-(((7-(2-aminopyrimidin-4-yl)-2,3-dihydrofuro[3,2-c]pyridin-4-yl)amino)methyl)-N-(5-(4-(3-(dimethylamino)propanoyl)piperazin-1-yl)pyridin-2-yl)benzamide]	79.4 ± 7.3	–
≤ 3	≤ 3	*** (ratio≥10)	C[C@@H]1CNCCN1c1ccc(NC(=O)c2cccc(CNc3ncc(-c4ccnc(N)n4)c4c3CCO4)c2)nc1 [Example 69, (R)-3-(((7-(2-aminopyrimidin-4-yl)-2,3-dihydrofuro[3,2-c]pyridin-4-yl)amino)methyl)-N-(5-(2-methylpiperazin-1-yl)pyridin-2-yl)benzamide]	74.8 ± 7.8	–
≤ 3	≤ 3	*** (ratio≥10)	CNCCNc1ccc(NC(=O)c2cccc(CNc3ncc(-c4ccnc(N)n4)c4c3CCO4)c2)nc1 [Example 70, 3-(((7-(2-aminopyrimidin-4-yl)-2,3-dihydrofuro[3,2-c]pyridin-4-yl)amino)methyl)-N-(5-((2-(methylamino)ethyl)amino)pyridin-2-yl)benzamide]	62.2 ± 7	–
≤ 3	≤ 3	*** (ratio≥10)	Nc1nccc(-c2cnc(NCc3cccc(C(=O)Nc4ccc(OC5CCNCC5)cn4)c3)c3c2OCC3)n1 [Example 71, 3-(((7-(2-aminopyrimidin-4-yl)-2,3-dihydrofuro[3,2-c]pyridin-4-yl)amino)methyl)-N-(5-(piperidin-4-yloxy)pyridin-2-yl)benzamide]	–	47.9 ± 7.7
≤ 3	≤ 3	*** (ratio≥10)	CNCCOc1ccc(NC(=O)c2cccc(CNc3ncc(-c4ccnc(N)n4)c4c3CCO4)c2)nc1 [Example 73, 3-(((7-(2-aminopyrimidin-4-yl)-2,3-dihydrofuro[3,2-c]pyridin-4-yl)amino)methyl)-N-(5-(2-(methylamino)ethoxy)pyridin-2-yl)benzamide]	76.6 ± 6	–
≤ 3	≤ 3	*** (ratio≥10)	CN1C[C@H]2C[C@@H]1CN2c1ccc(NC(=O)c2cccc(CNc3ncc(-c4ccnc(N)n4)c4c3CCO4)c2)nc1 [Example 74]	–	77.7 ± 4
≤ 3	≤ 3	*** (ratio≥10)	CN(C)CCNc1ccc(NC(=O)c2cccc(CNc3ncc(-c4ccnc(N)n4)c4c3CCO4)c2)nc1 [Example 77, 3-(((7-(2-aminopyrimidin-4-yl)-2,3-dihydrofuro[3,2-c]pyridin-4-yl)amino)methyl)-N-(5-((2-(dimethylamino)ethyl)amino)pyridin-2-yl)benzamide]	–	79
≤ 3	≤ 3	*** (ratio≥10)	CN1CCN(Cc2ccc(NC(=O)c3cccc(CNc4ncc(-c5ccnc(N)n5)c5c4CCO5)c3)nc2)CC1 [Example 78, 3-(((7-(2-aminopyrimidin-4-yl)-2,3-dihydrofuro[3,2-c]pyridin-4-yl)amino)methyl)-N-(5-((4-methylpiperazin-1-yl)methyl)pyridin-2-yl)benzamide]	68.8 ± 8.6	–
≤ 3	≤ 3	*** (ratio≥10)	Nc1nccc(-c2cnc(NCc3cccc(C(=O)Nc4ccc(OC[C@]5(F)CCNC5)cn4)c3)c3c2OCC3)n1 [Example 79, (S)-3-(((7-(2-aminopyrimidin-4-yl)-2,3-dihydrofuro[3,2-c]pyridin-4-yl)amino)methyl)-N-(5-((3-fluoropyrrolidin-3-yl)methoxy)pyridin-2-yl)benzamide]	58 ± 6	–
≤ 3	≤ 3	*** (ratio≥10)	CNC1(COc2ccc(NC(=O)c3cccc(CNc4ncc(-c5ccnc(N)n5)c5c4CCO5)c3)nc2)CCOCC1 [Example 80, 3-(((7-(2-aminopyrimidin-4-yl)-2,3-dihydrofuro[3,2-c]pyridin-4-yl)amino)methyl)-N-(5-((4-(methylamino)tetrahydro-2H-pyran-4-yl)methoxy)pyridin-2-yl)benzamide]	85.7 ± 0.8	–
≤ 3	≤ 3	*** (ratio≥10)	CNCc1ccc(NC(=O)c2cccc(CNc3ncc(-c4ccnc(N)n4)c4c3CCO4)c2)nc1 [Example 84, 3-(((7-(2-Aminopyrimidin-4-yl)-2,3-dihydrofuro[3,2-c]pyridin-4-yl)amino)methyl)-N-(5-((methylamino)methyl)pyridin-2-yl)benzamide]	89.5 ± 2	–
